US20030198659A1, “Fibrous pest control” (priority 2001, published 2003)

Legend:
[1] = tested on: D. radicum; test: Fibers+optical brightener/cabbage maggot field-cage experiment; format: in vivo, Delia radicum; conditions: rate 0.033 kg ai/100-m row
From the text: Fibers+optical brightener/cabbage maggot field-cage experiment. Optical (fluorescent) brighteners are widely used in paints, fabrics, plastics and detergents, wherein they enhance the apparent brightness of the material by absorbing UV radiation and emitting light in the blue visual spectrum (Martinez et al. 2000). These brighteners were feasible to use with our existing technology and could potentially increase fiber effectiveness. Thus in mid-May 2000, we tested the efficacy of optical brighteners added to EVA fibers against cabbage maggots in four large (3.7×3.7×1.8-m) Lumite® field cages. The experiment was a randomized complete block design with four replicates (cages).
Within each cage, six rows (3-m long) were formed about 0.3-m apart by hand plowing. Greenhouse-grown two-leaf stage broccoli cv ‘Southern Comet’ was transplanted into the 6 rows within each cage at a plant spacing of 15 cm. One row of broccoli represented a single treatment within each cage. […]
On May 21 , approximately 175 D. radicum pupae were released into each of the four cages and 10% sucrose solution was provided as a food source for emerging adults. […] Total number of larvae and pupae per plant was recorded.

[2] = tested on: Silverleaf Whiteflies; test: Greenhouse no choice oviposition of whiteflies on squash; format: in vivo, Bemisia argentifolii; conditions: spun sucrose trial
Method: Whiteflies were tested with a “No Choice” protocol using single treated and untreated summer squash plants var. “Seneca.” Two liter, polyethylene soda container arenas holding a single squash plant in a potting soil mixture were used for whitefly studies. Ten mating pairs of whiteflies were introduced into each arena for all studies. Up to forty arenas, depending on the treatment parameters of a given trial, were run simultaneously under identical ambient conditions. Ambient temperature and time of day were tracked during greenhouse trials. […] Counts were made using a binocular dissecting scope. […] While EVA, graphite and PVA fibers were relatively stable in greenhouse studies, the sucrose fibers were quickly degraded by moisture and formed a sugar coating of the leafs surface with numerous raised and stable sugar droplets. This was an expected result and the efficacy of this fiber application was worthy of testing.

SMILES | D. radicum larvae per 3-m row of broccoli [1] | Total # of eggs (total mean number of eggs/plant) [2] | Total # of eggs (total mean number of eggs/plant) ([2]; listed as sucrose)
CCOP(=S)(OCC)Oc1nc(Cl)c(Cl)cc1Cl [Chlorpyrifos drench, chlorpyrifos] | 6.0 ± 2.3 | – | –
OC[C@H]1O[C@@](CO)(O[C@H]2O[C@H](CO)[C@@H](O)[C@H](O)[C@H]2O)[C@@H](O)[C@@H]1O [Sugar, sucrose] | – | 5.867 | 5.87±1.96
